{
  "source": "patent US11066368B2",
  "about": "“Process for the preparation and particle size reduction of pirfenidone” (Laurus Labs Limited, priority 2016, dated 2021)",
  "type_in_all_cases": "physicochemical",
  "key": {"[1]": {"assay": "Dust explosion test by Modified Hartmann Apparatus", "design": "key to Dust explosion class (overall): St0H: No fire or explosion; St1H: Dust fire or mild explosion; St2H: Violent explosion", "settings": "for Dust explosion Class: sieved through 63μ", "experimental": "This test was performed based on procedures from VDI 2263, Part 1 (Section 2.1.1), “Dust fires and dust explosions; hazards, assessment, protective measures”, using a Modified Hartmann Apparatus. Pirfenidone was dried at 50° C. under vacuum, sieved through 63μ sieve. Weighed amount of product was charged into a modified hartmann tube of 1.2 liter volume. The product was converted into a dust cloud in glass cylindrical tube with compressed air and electrodes with continuous spark was used as ignition source to ignite the dust cloud. Based on dust fire or extent of opening of the hinged cover rating 0, 1 or 2 are assigned."}, "[2]": {"assay": "Particle size distribution after wet milling with high speed homogenizer (Silverson L5M-A)", "settings": "water", "experimental": "(§1) As used herein, the term “particle size distribution” is expressed in terms of D90, D50 and D10, which corresponds to the diameter of 90 percent by volume of the particles, 50 percent by volume of the particles and 10 percent by volume of the particles are present, respectively.\n(§2) The particle size distribution of pirfenidone is measured utilizing: Instrument model: Malvern; Mastersizer 3000; particle refraction index of sample: 1.700; Absorption: 0.01 and Analysis model: general purpose, normal sensitivity, non-spherical particles.\n(§3) Water (300 mL) and Pirfenidone (100 gr; Particle size distribution: D10: 1330 μm; D50: 1950 μm and D90: 2840 μm) were charged into reaction vessel at 25° C. to 35° C. and was placed High speed stirrer/Homogenizer into the reaction mass till required particle size was obtained at 25° C. to 35° C. Particle size distribution of the sample with different time interval was monitored by collecting the sample from reaction mass. After achieving the required particle size, stirred the reaction mixture for 30-60 min at 25° C. to 35° C. Further, the reaction mixture temperature was allowed to cool to 0° C. to 5° C. and stirred for 2-3 hrs at same temperature. Filter the solid and washed with the wet cake with chilled water (100 mL), dried the solid in an oven under vacuum at 60° C. for 4-6 hours.\n(§4) The following examples were performed using the above described process with different rpm and time; the obtained results are tabulated below: […]"}, "[3]": {"assay": "Particle size distribution after ultra sonication by sonoprocessor (RTUL 10SP-20-3000-SD)", "settings": "ultra sonication in water", "experimental": "as §1, §2\nas §3, with “Pirfenidone (200” for “Pirfenidone (100”, “placed Sonoprocessor” for “placed High speed stirrer/Homogenizer”, “washed” for “washed with”\nas §4"}, "[4]": {"settings": "2000 RPM, stirring time 120 min"}, "[5]": {"settings": "2000 RPM, stirring time 240 min"}},
  "data": [
    {"smiles": "Cc1ccc(=O)n(-c2ccccc2)c1", "note": "[Pirfenidone, 5-methyl-1-phenyl-2-1(H)-pyridone]", "values": [
      {"measurement": "Dust explosion Class", "setting": "[1]; Wt. of sample 120 mg, eq. dust concentration 100 g/m3", "value": 1},
      {"measurement": "Dust explosion Class", "setting": "[1]; Wt. of sample 240 mg, eq. dust concentration 200 g/m3", "value": 2},
      {"measurement": "Dust explosion class (overall)", "setting": "[1]; summary of safety studies", "value": "St2H"},
      {"measurement": "PSD D10", "setting": "[2]; 2000 RPM, stirring time 30 min", "value": 24, "unit": "μm"},
      {"measurement": "PSD D50", "setting": "[2]; 2000 RPM, stirring time 30 min", "value": 82, "unit": "μm"},
      {"measurement": "PSD D90", "setting": "[2]; 2000 RPM, stirring time 30 min", "value": 230, "unit": "μm"},
      {"measurement": "PSD D10", "setting": "[2]; 2000 RPM, stirring time 60 min", "value": 24, "unit": "μm"},
      {"measurement": "PSD D50", "setting": "[2]; 2000 RPM, stirring time 60 min", "value": 88, "unit": "μm"},
      {"measurement": "PSD D90", "setting": "[2]; 2000 RPM, stirring time 60 min", "value": 200, "unit": "μm"},
      {"measurement": "PSD D10", "setting": "[2]; [4]", "value": 21, "unit": "μm"},
      {"measurement": "PSD D50", "setting": "[2]; [4]", "value": 75, "unit": "μm"},
      {"measurement": "PSD D90", "setting": "[2]; [4]", "value": 165, "unit": "μm"},
      {"measurement": "PSD D10", "setting": "[2]; [5]", "value": 21, "unit": "μm"},
      {"measurement": "PSD D50", "setting": "[2]; [5]", "value": 71, "unit": "μm"},
      {"measurement": "PSD D90", "setting": "[2]; [5]", "value": 154, "unit": "μm"},
      {"measurement": "PSD D10", "setting": "[2]; 5000 RPM, stirring time 60 min", "value": 17, "unit": "μm"},
      {"measurement": "PSD D50", "setting": "[2]; 5000 RPM, stirring time 60 min", "value": 48, "unit": "μm"},
      {"measurement": "PSD D90", "setting": "[2]; 5000 RPM, stirring time 60 min", "value": 108, "unit": "μm"},
      {"measurement": "PSD D10", "setting": "[2]; 7000 RPM, stirring time 60 min", "value": 13, "unit": "μm"},
      {"measurement": "PSD D50", "setting": "[2]; 7000 RPM, stirring time 60 min", "value": 42, "unit": "μm"},
      {"measurement": "PSD D90", "setting": "[2]; 7000 RPM, stirring time 60 min", "value": 91, "unit": "μm"},
      {"measurement": "PSD D10", "setting": "[3]; sonication time 30 min", "value": 44, "unit": "μm"},
      {"measurement": "PSD D50", "setting": "[3]; sonication time 30 min", "value": 145, "unit": "μm"},
      {"measurement": "PSD D90", "setting": "[3]; sonication time 30 min", "value": 245, "unit": "μm"},
      {"measurement": "PSD D10", "setting": "[3]; sonication time 60 min", "value": 26, "unit": "μm"},
      {"measurement": "PSD D50", "setting": "[3]; sonication time 60 min", "value": 101, "unit": "μm"},
      {"measurement": "PSD D90", "setting": "[3]; sonication time 60 min", "value": 189, "unit": "μm"},
      {"measurement": "PSD D10", "setting": "[3]; sonication time 120 min", "value": 19, "unit": "μm"},
      {"measurement": "PSD D50", "setting": "[3]; sonication time 120 min", "value": 68, "unit": "μm"},
      {"measurement": "PSD D90", "setting": "[3]; sonication time 120 min", "value": 150, "unit": "μm"},
      {"measurement": "PSD D10", "setting": "[3]; sonication time 180 min", "value": 13, "unit": "μm"},
      {"measurement": "PSD D50", "setting": "[3]; sonication time 180 min", "value": 48, "unit": "μm"},
      {"measurement": "PSD D90", "setting": "[3]; sonication time 180 min", "value": 109, "unit": "μm"}
    ]}
  ]
}
